In ChEMBL document CHEMBL1141075, “4-Oxo-4,7-dihydrothieno[2,3-b]pyridines as non-nucleoside inhibitors of human cytomegalovirus and related herpesvirus polymerases” (J Med Chem, 2005):

How the values were obtained:
[1] = target: T1, DNA polymerase delta catalytic subunit (Homo sapiens, UniProt P28340); assay: Inhibition of human delta DNA polymerase (95 uL) activity in a solution containg […] HEPES (pH 7.5) upon incubation for 12 minutes at 26 degrees C with the compound dissolved in DMSO
T1 sequence (P28340 whole entry): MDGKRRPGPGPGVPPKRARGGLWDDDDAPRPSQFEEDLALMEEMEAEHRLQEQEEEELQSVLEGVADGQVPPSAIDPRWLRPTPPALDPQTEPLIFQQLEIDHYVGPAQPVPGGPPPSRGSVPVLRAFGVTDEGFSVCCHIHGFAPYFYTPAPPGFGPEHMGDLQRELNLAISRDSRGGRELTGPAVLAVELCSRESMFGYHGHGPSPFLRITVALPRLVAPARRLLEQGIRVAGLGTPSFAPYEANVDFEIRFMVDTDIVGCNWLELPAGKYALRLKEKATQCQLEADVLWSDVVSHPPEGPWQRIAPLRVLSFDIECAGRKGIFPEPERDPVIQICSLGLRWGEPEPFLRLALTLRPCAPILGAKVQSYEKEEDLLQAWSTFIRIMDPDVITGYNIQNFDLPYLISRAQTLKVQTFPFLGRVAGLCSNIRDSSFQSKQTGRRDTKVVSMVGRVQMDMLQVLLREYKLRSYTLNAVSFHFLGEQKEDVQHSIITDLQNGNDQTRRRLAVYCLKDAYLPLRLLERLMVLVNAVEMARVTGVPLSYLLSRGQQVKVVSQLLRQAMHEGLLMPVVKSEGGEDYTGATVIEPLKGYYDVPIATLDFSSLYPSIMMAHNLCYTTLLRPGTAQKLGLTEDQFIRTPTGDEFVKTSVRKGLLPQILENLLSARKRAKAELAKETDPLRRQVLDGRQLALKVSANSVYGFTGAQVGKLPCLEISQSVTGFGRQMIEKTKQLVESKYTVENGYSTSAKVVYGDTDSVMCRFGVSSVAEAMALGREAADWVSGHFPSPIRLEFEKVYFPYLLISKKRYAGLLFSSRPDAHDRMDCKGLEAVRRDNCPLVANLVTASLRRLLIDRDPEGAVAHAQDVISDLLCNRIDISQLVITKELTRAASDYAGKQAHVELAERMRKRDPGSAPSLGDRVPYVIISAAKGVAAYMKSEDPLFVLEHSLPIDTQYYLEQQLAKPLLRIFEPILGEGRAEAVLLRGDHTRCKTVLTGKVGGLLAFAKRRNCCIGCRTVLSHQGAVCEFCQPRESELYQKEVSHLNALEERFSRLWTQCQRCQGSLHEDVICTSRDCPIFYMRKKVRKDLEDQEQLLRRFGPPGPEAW

[2] = target: T2, DNA polymerase catalytic subunit (Varicella-zoster virus (strain Dumas) (HHV-3) (Human herpesvirus 3), UniProt P09252); assay: Inhibition of Varicella-Zoster virus DNA polymerase (95 uL) activity in a solution containing […] HEPES (pH 7.5), incubation for 12 minutes at 26 degrees C; set-up: species or system Human alphaherpesvirus 3
T2 sequence (P09252 whole entry): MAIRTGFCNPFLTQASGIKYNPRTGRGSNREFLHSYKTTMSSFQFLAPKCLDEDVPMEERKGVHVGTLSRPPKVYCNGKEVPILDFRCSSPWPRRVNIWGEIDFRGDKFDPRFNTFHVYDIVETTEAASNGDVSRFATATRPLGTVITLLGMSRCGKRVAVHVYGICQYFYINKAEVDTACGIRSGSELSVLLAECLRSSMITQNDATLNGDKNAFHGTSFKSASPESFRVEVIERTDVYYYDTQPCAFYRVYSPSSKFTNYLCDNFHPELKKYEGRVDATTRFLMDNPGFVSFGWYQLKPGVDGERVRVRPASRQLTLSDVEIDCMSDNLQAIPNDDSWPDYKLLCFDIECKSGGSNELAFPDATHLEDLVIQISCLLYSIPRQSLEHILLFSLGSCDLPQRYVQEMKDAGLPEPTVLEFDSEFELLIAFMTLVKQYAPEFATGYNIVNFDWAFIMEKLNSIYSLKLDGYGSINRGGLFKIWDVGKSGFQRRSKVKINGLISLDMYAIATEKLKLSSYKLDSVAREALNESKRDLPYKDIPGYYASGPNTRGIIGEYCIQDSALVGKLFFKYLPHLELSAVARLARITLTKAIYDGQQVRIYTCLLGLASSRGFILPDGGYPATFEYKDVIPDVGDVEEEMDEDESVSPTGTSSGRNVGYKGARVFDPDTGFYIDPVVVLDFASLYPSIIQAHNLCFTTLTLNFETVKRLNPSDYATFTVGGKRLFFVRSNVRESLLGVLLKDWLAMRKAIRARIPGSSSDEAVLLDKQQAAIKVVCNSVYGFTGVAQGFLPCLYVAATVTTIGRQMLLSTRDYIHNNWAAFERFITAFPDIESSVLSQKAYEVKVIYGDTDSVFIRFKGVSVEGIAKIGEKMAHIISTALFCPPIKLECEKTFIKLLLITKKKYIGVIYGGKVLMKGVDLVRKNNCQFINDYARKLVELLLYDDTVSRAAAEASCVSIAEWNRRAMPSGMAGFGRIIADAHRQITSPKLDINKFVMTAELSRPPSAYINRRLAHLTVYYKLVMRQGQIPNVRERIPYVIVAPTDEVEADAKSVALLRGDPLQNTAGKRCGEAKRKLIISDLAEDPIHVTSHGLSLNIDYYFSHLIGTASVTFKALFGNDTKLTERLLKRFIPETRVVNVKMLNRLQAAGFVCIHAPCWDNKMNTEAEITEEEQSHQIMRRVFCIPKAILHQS

| SMILES | IC50 [1] | IC50 [2] |
| --- | --- | --- |
| Cn1cc(C(=O)NCc2ccc(Cl)cc2)c(=O)c2cc(CN3CCOCC3)ccc21 | > 40000 nM | – |
| O=C(NCc1ccc(Cl)cc1)c1cnc2ccc(CCCO)cc2c1O | > 40000 nM | 70 nM |
| Cn1cc(C(=O)NCc2ccc(Cl)cc2)c(=O)c2cc(CN3CCOCC3)sc21 | > 40000 nM | 770 nM |
